The NIST ThermoML archive (doi:10.1021/acs.jced.6b00496)
± gives the expanded uncertainty stated by the source.

Test: xn = mol fraction of the nth substance listed
Details: 81.5 kPa, Liquid; for speed of sound: Sing-around technique in a fixed-path interferometer; for mass density: Vibrating tube method

CCn1cc[n+](C)c1.F[B-](F)(F)F [1-ethyl-3-methylimidazolium tetrafluoroborate] + CC(=O)N(C)C
Details	mass density [kg/m3]	speed of sound [m/s]
293.15 K, x1 = 0.131	1020.02 ± 4.1	1520.9 ± 3.3
293.15 K, x1 = 0.198	1054.86 ± 4.2	1544.9 ± 3.3
293.15 K, x1 = 0.2976	1098.69 ± 4.4	1566.5 ± 3.3
293.15 K, x1 = 0.3868	1134.17 ± 4.6	1581.8 ± 3.4
293.15 K, x1 = 0.4734	1164.33 ± 4.7	1594.3 ± 3.4
293.15 K, x1 = 0.563	1190.97 ± 4.8	1606.8 ± 3.5
293.15 K, x1 = 0.7089	1230.24 ± 5	1620 ± 3.5
293.15 K, x1 = 0.7973	1244.59 ± 5.1	1625.7 ± 3.6
293.15 K, x1 = 0.8821	1257.25 ± 5.2	1629.9 ± 3.6
293.15 K, x1 = 1	1285.95 ± 5.3	1640.4 ± 3.7
298.15 K, x1 = 0.131	1015.67 ± 4.1	1502.5 ± 3.3
298.15 K, x1 = 0.198	1050.63 ± 4.2	1527.6 ± 3.3
298.15 K, x1 = 0.2976	1094.55 ± 4.4	1550.4 ± 3.3
298.15 K, x1 = 0.3868	1130.11 ± 4.6	1566.4 ± 3.4
298.15 K, x1 = 0.4734	1160.32 ± 4.7	1579.8 ± 3.4
298.15 K, x1 = 0.563	1187.07 ± 4.8	1592.9 ± 3.5
298.15 K, x1 = 0.7089	1226.34 ± 5	1606.9 ± 3.5
298.15 K, x1 = 0.7973	1240.73 ± 5.1	1613 ± 3.6
298.15 K, x1 = 0.8821	1253.4 ± 5.1	1617.4 ± 3.6
298.15 K, x1 = 1	1282.14 ± 5.3	1628.4 ± 3.7
303.15 K, x1 = 0.131	1011.32 ± 4.1	1484.4 ± 3.3
303.15 K, x1 = 0.198	1046.39 ± 4.2	1510.4 ± 3.3
303.15 K, x1 = 0.2976	1090.43 ± 4.4	1534.3 ± 3.3
303.15 K, x1 = 0.3868	1126.06 ± 4.5	1551.3 ± 3.4
303.15 K, x1 = 0.4734	1156.33 ± 4.7	1565.3 ± 3.4
303.15 K, x1 = 0.563	1183.16 ± 4.8	1579.1 ± 3.5
303.15 K, x1 = 0.7089	1222.46 ± 5	1594.1 ± 3.5
303.15 K, x1 = 0.7973	1236.88 ± 5.1	1600.4 ± 3.6
303.15 K, x1 = 0.8821	1249.55 ± 5.1	1605.1 ± 3.6
303.15 K, x1 = 1	1278.34 ± 5.3	1616 ± 3.7
308.15 K, x1 = 0.131	1006.92 ± 4	1466.5 ± 3.3
308.15 K, x1 = 0.198	1042.17 ± 4.2	1493.4 ± 3.3
308.15 K, x1 = 0.2976	1086.31 ± 4.4	1518.5 ± 3.3
308.15 K, x1 = 0.3868	1122.03 ± 4.5	1536.2 ± 3.4
308.15 K, x1 = 0.4734	1152.37 ± 4.6	1551.1 ± 3.4
308.15 K, x1 = 0.563	1179.25 ± 4.8	1565.5 ± 3.5
308.15 K, x1 = 0.7089	1218.61 ± 5	1581.4 ± 3.5
308.15 K, x1 = 0.7973	1233.06 ± 5	1588 ± 3.6
308.15 K, x1 = 0.8821	1245.73 ± 5.1	1592.9 ± 3.6
308.15 K, x1 = 1	1274.55 ± 5.3	1604.9 ± 3.7
313.15 K, x1 = 0.131	1002.63 ± 4	1448.8 ± 3.3
313.15 K, x1 = 0.198	1037.96 ± 4.2	1476.5 ± 3.3
313.15 K, x1 = 0.2976	1082.21 ± 4.3	1502.7 ± 3.3
313.15 K, x1 = 0.3868	1118 ± 4.5	1521.4 ± 3.4
313.15 K, x1 = 0.4734	1148.41 ± 4.6	1536.9 ± 3.4
313.15 K, x1 = 0.563	1175.34 ± 4.8	1552.1 ± 3.5
313.15 K, x1 = 0.7089	1214.78 ± 4.9	1568.8 ± 3.5
313.15 K, x1 = 0.7973	1229.25 ± 5	1575.7 ± 3.6
313.15 K, x1 = 0.8821	1241.92 ± 5.1	1580.8 ± 3.6
313.15 K, x1 = 1	1270.78 ± 5.2	1593.4 ± 3.7
318.15 K, x1 = 0.131	–	1431.2 ± 3.3
318.15 K, x1 = 0.198	–	1459.8 ± 3.3
318.15 K, x1 = 0.2976	–	1487.1 ± 3.3
318.15 K, x1 = 0.3868	–	1506.6 ± 3.4
318.15 K, x1 = 0.4734	–	1522.9 ± 3.4
318.15 K, x1 = 0.563	–	1538.7 ± 3.5
318.15 K, x1 = 0.7089	–	1556.3 ± 3.5
318.15 K, x1 = 0.7973	–	1563.5 ± 3.6
318.15 K, x1 = 0.8821	–	1568.9 ± 3.6
318.15 K, x1 = 1	–	1582 ± 3.7
